According to the supplement of paper PMC12463676, “Small-molecule dissolution of stress granules by redox modulation benefits ALS models” (Nature Chemical Biology, 2025):

compound: NC(=O)CCCCC1CCSS1 [lipoamide]; experiment: thermal stability z-score vs DMSO; higher = more thermally stabilized by treatment; conditions: HeLa; lipoamide concentration 100 µM; arsenate co-treatment: 1 mM arsenate 1 h
Method: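 Cellular thermal proteome profiling in HeLa cells. Cells were treated with 100 µM lipoamide for 1 h, with or without 1 mM arsenate for a further 1 h, then heated to ten temperatures (37-66.3 °C), and soluble protein was quantified by TMT mass spectrometry relative to 0.1% DMSO controls. The thermal stability score (sum of log2 fold changes minus the abundance score) was transformed to a z-score; mean of n = 3 experiments.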
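Further: each temperature applied for 3 min, abundance score taken as mean log2 fold change at the two lowest temperatures, z-score obtained by mean subtraction and division by SD.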

Chain of UniProt Q9BQ39 (Q9BQ39 whole entry): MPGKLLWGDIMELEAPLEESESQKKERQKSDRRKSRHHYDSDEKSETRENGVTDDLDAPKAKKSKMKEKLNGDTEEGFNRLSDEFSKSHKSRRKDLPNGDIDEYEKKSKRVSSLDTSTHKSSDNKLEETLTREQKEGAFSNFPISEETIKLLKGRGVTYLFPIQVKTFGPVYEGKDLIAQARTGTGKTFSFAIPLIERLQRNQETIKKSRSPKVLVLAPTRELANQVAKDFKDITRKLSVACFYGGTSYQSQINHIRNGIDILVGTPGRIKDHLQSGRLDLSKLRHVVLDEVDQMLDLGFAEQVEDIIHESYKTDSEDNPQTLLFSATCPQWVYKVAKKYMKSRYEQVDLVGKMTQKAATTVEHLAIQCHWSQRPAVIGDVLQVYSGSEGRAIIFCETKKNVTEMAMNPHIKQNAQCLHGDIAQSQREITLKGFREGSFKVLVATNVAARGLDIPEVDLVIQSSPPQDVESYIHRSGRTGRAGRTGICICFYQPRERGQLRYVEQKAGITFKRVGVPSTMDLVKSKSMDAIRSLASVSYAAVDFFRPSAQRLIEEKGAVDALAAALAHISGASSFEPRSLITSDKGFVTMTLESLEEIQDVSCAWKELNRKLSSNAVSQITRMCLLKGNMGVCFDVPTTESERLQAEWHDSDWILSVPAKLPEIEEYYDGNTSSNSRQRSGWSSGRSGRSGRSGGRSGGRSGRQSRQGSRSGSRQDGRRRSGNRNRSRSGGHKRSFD
Chain of UniProt P20020 (P20020 whole entry): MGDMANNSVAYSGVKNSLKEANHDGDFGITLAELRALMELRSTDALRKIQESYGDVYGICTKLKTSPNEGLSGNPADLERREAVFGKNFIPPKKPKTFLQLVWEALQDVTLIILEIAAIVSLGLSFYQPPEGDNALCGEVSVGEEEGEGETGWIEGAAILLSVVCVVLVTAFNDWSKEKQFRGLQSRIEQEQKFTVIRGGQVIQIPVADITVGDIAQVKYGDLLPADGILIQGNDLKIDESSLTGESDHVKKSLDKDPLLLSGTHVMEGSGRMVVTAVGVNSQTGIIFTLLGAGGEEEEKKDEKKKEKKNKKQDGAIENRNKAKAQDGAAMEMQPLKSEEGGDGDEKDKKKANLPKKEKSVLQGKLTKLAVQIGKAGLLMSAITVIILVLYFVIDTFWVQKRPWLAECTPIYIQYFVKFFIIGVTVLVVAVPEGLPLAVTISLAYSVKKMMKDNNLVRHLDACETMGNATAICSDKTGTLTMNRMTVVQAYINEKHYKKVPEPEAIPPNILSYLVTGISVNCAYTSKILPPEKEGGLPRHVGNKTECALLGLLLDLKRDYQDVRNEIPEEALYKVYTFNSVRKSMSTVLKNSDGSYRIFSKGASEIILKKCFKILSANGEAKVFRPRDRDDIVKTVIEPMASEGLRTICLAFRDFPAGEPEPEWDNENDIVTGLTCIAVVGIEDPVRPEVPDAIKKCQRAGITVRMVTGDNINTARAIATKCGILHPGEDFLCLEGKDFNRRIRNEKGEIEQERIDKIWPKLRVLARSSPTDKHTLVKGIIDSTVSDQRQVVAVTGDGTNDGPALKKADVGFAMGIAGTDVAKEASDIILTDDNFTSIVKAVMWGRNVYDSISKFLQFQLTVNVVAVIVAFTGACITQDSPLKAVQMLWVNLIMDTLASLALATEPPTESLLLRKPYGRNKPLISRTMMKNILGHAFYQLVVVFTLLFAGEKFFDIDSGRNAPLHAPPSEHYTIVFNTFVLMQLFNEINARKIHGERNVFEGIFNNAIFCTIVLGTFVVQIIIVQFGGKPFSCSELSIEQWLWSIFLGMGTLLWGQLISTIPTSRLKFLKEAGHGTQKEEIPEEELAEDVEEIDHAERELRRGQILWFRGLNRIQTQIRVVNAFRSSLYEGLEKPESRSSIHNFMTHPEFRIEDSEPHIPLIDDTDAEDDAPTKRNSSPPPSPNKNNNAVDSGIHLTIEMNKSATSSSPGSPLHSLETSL
Chain of UniProt Q96JJ3 (Q96JJ3 whole entry): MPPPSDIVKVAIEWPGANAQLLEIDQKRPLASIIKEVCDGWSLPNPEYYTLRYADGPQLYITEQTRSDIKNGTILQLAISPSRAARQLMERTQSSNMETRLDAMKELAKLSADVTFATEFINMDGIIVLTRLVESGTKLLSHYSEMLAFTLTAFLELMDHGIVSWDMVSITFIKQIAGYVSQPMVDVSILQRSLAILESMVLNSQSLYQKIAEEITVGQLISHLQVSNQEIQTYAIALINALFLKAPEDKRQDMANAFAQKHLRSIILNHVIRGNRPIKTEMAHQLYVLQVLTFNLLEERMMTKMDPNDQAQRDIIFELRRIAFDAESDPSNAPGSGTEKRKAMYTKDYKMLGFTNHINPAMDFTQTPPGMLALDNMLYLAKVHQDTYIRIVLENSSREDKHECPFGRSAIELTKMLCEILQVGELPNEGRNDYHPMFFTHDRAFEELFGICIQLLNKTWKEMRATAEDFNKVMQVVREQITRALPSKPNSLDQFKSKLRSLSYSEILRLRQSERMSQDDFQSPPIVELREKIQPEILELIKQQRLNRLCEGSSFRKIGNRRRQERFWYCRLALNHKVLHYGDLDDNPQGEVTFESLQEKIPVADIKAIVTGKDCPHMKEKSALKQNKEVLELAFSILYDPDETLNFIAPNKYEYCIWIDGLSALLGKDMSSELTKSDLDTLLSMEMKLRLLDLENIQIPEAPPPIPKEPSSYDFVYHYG
Chain of UniProt Q96C19 (Q96C19 whole entry): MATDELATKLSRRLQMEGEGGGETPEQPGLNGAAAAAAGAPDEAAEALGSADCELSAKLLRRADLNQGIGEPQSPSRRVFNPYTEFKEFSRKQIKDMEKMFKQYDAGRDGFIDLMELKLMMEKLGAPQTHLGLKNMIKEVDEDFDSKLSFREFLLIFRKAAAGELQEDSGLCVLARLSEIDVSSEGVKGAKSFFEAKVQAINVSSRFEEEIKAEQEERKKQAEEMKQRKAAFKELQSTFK

Going from U2SURP (UniProt O15042) to GNPDA2 (UniProt Q8TDQ7), the thermal stability z-score falls from 0.962 to -0.212.

First: EEF1E1 (UniProt O43324)
Second: SP1 (UniProt P08047)
The thermal stability z-score of the first is higher: 0.552 for the first, -0.0425 for the second.

Compared with ABHD17C (UniProt Q6PCB6), RB1CC1 (UniProt Q8TDY2) is higher in thermal stability z-score: -0.923 for the first, -0.502 for the second.

Going from SLC25A12 (UniProt O75746) to ATP2B1 (UniProt P20020), the thermal stability z-score rises from -0.149 to 0.446.

Compared with ELMO2 (UniProt Q96JJ3), DPP9 (UniProt Q86TI2) is higher in thermal stability z-score: -0.114 for the first, -0.0984 for the second.

Going from EFHD2 (UniProt Q96C19) to PPFIBP1 (UniProt Q86W92), the thermal stability z-score falls from 0.403 to -0.215.

Going from PEX6 (UniProt Q13608) to NKIRAS1 (UniProt Q9NYS0), the thermal stability z-score falls from 0.132 to -0.202.

Going from ERCC2 (UniProt P18074) to DCAF15 (UniProt Q66K64), the thermal stability z-score falls from 0.408 to 0.165.

First: ATF6 (UniProt P18850)
Second: RAB43 (UniProt Q86YS6)
The thermal stability z-score of the first is higher: -0.0284 for the first, -0.0743 for the second.

Compared with C11ORF68 (UniProt Q9H3H3), DDX50 (UniProt Q9BQ39) is higher in thermal stability z-score: -0.438 for the first, 0.262 for the second.

First: NUP153 (UniProt P49790)
Second: POLD3 (UniProt Q15054)
The thermal stability z-score of the first is higher: 0.99 for the first, -0.0475 for the second.

Compared with WAC (UniProt Q9BTA9), KLHDC4 (UniProt Q8TBB5) is lower in thermal stability z-score: 0.192 for the first, -0.895 for the second.

Compared with MED18 (UniProt Q9BUE0), HNRNPH1 (UniProt P31943) is lower in thermal stability z-score: -0.0409 for the first, -0.365 for the second.

Compared with HM13 (UniProt Q8TCT9), SHTN1 (UniProt A0MZ66) is higher in thermal stability z-score: 0.0446 for the first, 1.1 for the second.

Going from NME1|NME2 to DNAJC13 (UniProt O75165), the thermal stability z-score falls from 0.455 to -0.118.

Going from MYO5C (UniProt Q9NQX4) to ATG4B (UniProt Q9Y4P1), the thermal stability z-score falls from 0.173 to 0.0217.

First: ZFYVE19 (UniProt Q96K21)
Second: ATP5C1 (UniProt P36542)
The thermal stability z-score of the first is lower: -0.473 for the first, -0.36 for the second.

First: SND1 (UniProt Q7KZF4)
Second: IP6K1 (UniProt Q92551)
Chain of UniProt Q92551 (Q92551 whole entry, looked up): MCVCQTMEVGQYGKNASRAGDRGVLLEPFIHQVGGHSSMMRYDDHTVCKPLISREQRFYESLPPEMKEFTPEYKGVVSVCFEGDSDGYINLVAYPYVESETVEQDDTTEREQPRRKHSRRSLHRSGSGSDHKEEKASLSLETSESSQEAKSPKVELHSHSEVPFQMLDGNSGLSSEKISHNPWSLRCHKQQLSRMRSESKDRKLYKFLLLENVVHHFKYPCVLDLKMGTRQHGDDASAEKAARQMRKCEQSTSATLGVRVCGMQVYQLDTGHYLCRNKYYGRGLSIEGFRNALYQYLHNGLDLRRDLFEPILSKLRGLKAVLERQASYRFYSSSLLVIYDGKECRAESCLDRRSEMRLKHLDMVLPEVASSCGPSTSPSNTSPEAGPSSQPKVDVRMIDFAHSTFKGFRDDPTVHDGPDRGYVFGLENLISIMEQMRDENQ
The thermal stability z-score of the first is lower: 0.317 for the first, 0.327 for the second.

same assay, conditions: HeLa; lipoamide concentration 100 µM; arsenate co-treatment: none

First: DUSP3 (UniProt P51452)
Second: NARFL (UniProt Q9H6Q4)
The thermal stability z-score of the first is higher: 0.265 for the first, 0.0715 for the second.

Compared with PPIL1 (UniProt Q9Y3C6), NCOA7 (UniProt Q8NI08) is lower in thermal stability z-score: -0.42 for the first, -0.721 for the second.

Going from INPPL1 (UniProt O15357) to DEPDC7 (UniProt Q96QD5), the thermal stability z-score falls from -0.154 to -0.237.

Compared with KIF21A (UniProt Q7Z4S6), HDAC2 (UniProt Q92769) is higher in thermal stability z-score: -0.117 for the first, 4.53 for the second.

Going from PELO (UniProt Q9BRX2) to CASP2 (UniProt P42575), the thermal stability z-score rises from -0.364 to 0.304.

First: YDJC (UniProt A8MPS7)
Second: PPAT (UniProt Q06203)
The thermal stability z-score of the first is lower: -1.66 for the first, 0.28 for the second.

Compared with CDS2 (UniProt O95674), PSME4 (UniProt Q14997) is higher in thermal stability z-score: -0.975 for the first, -0.198 for the second.

Compared with DDB1 (UniProt Q16531), METTL3 (UniProt Q86U44) is higher in thermal stability z-score: -0.519 for the first, 0.0119 for the second.

Going from FAM114A2 (UniProt Q9NRY5) to GLB1 (UniProt P16278), the thermal stability z-score rises from -0.328 to -0.0527.

Compared with IL6ST (UniProt P40189), PSPH (UniProt P78330) is higher in thermal stability z-score: -1 for the first, 0.393 for the second.

Going from BID (UniProt P55957) to ADPGK (UniProt Q9BRR6), the thermal stability z-score falls from 1.36 to -0.44.

Going from SERPINB4 (UniProt P48594) to MYO1E (UniProt Q12965), the thermal stability z-score rises from 0.197 to 0.582.

Going from ALG2 (UniProt Q9H553) to MPP6, the thermal stability z-score rises from -1.3 to -0.0854.

Going from TTC27 (UniProt Q6P3X3) to LRRC8E (UniProt Q6NSJ5), the thermal stability z-score rises from -0.257 to -0.139.

Compared with TMEM87A (UniProt Q8NBN3), SPAG9 (UniProt O60271) is lower in thermal stability z-score: 0.36 for the first, -0.0736 for the second.

First: MMS19 (UniProt Q96T76)
Second: H2AFY (UniProt O75367)
The thermal stability z-score of the first is lower: -1.16 for the first, 0.0481 for the second.

First: ANAPC1 (UniProt Q9H1A4)
Second: RCN1 (UniProt Q15293)
The thermal stability z-score of the first is higher: 0.139 for the first, -0.814 for the second.

First: TLCD1 (UniProt Q96CP7)
Second: U2SURP (UniProt O15042)
The thermal stability z-score of the first is lower: -0.035 for the first, 0.428 for the second.

Compared with GNPDA2 (UniProt Q8TDQ7), EEF1E1 (UniProt O43324) is higher in thermal stability z-score: -0.181 for the first, 0.194 for the second.

Compared with SP1 (UniProt P08047), ABHD17C (UniProt Q6PCB6) is higher in thermal stability z-score: -0.199 for the first, -0.152 for the second.

First: RB1CC1 (UniProt Q8TDY2)
Second: SLC25A12 (UniProt O75746)
Chain of UniProt O75746 (O75746 whole entry): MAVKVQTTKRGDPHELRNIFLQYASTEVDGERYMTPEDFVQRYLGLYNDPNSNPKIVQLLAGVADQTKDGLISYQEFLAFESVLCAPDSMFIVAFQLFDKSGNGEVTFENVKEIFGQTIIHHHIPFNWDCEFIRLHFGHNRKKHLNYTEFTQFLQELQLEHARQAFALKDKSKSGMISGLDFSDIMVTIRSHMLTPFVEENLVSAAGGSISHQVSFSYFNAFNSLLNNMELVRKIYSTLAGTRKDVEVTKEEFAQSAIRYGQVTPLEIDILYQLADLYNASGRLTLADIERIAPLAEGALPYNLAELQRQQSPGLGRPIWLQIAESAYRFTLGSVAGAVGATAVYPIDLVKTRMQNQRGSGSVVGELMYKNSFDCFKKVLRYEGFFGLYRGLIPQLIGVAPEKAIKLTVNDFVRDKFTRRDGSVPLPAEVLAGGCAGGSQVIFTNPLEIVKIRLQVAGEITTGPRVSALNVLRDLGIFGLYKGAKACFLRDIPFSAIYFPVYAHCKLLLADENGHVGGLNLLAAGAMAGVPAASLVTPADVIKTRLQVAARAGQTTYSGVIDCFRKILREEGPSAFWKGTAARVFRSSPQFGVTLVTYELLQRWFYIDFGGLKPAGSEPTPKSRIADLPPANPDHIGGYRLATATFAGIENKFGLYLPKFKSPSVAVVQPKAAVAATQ
The thermal stability z-score of the first is higher: -0.143 for the first, -0.154 for the second.

Compared with ATP2B1 (UniProt P20020), ELMO2 (UniProt Q96JJ3) is lower in thermal stability z-score: 0.697 for the first, 0.245 for the second.

Going from DPP9 (UniProt Q86TI2) to EFHD2 (UniProt Q96C19), the thermal stability z-score rises from -0.0569 to 0.677.

Compared with PPFIBP1 (UniProt Q86W92), PEX6 (UniProt Q13608) is higher in thermal stability z-score: 0.229 for the first, 0.339 for the second.

First: NKIRAS1 (UniProt Q9NYS0)
Second: ERCC2 (UniProt P18074)
Chain of UniProt P18074 (P18074 whole entry): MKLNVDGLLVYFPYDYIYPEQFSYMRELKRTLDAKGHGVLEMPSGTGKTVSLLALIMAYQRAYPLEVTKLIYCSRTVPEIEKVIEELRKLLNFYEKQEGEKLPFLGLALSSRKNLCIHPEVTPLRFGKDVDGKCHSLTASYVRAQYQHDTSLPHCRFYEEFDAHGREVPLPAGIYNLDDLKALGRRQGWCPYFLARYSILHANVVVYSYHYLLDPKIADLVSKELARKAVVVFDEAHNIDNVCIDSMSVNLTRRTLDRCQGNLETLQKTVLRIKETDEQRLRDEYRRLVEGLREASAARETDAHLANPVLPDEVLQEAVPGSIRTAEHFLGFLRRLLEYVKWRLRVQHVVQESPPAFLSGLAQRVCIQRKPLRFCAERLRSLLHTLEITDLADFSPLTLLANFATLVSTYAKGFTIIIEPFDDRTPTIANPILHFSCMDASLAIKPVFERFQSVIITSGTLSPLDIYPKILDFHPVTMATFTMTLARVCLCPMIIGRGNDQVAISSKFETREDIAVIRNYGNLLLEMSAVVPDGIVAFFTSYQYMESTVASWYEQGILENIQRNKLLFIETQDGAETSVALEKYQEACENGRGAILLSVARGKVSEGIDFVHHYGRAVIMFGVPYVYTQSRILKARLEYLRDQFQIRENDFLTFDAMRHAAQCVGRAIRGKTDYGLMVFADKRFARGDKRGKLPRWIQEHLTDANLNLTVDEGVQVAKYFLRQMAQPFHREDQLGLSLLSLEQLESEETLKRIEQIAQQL
The thermal stability z-score of the first is lower: -0.125 for the first, 0.701 for the second.

Compared with DCAF15 (UniProt Q66K64), ATF6 (UniProt P18850) is higher in thermal stability z-score: -0.178 for the first, -0.0127 for the second.

First: RAB43 (UniProt Q86YS6)
Second: C11ORF68 (UniProt Q9H3H3)
The thermal stability z-score of the first is higher: 1.38 for the first, -0.551 for the second.

Going from DDX50 (UniProt Q9BQ39) to NUP153 (UniProt P49790), the thermal stability z-score rises from 0.192 to 0.627.

Going from POLD3 (UniProt Q15054) to WAC (UniProt Q9BTA9), the thermal stability z-score falls from 0.44 to 0.112.

First: KLHDC4 (UniProt Q8TBB5)
Second: MED18 (UniProt Q9BUE0)
Chain of UniProt Q9BUE0 (Q9BUE0 whole entry): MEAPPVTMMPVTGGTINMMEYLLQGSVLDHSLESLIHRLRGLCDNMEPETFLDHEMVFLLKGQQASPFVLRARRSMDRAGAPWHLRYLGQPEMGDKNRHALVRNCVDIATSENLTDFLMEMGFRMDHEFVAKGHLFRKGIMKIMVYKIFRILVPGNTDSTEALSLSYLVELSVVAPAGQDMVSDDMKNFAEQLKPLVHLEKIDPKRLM
The thermal stability z-score of the first is lower: -0.0677 for the first, 0.0953 for the second.

Compared with HNRNPH1 (UniProt P31943), HM13 (UniProt Q8TCT9) is lower in thermal stability z-score: 0.482 for the first, -0.0484 for the second.

Going from SHTN1 (UniProt A0MZ66) to NME1|NME2, the thermal stability z-score falls from 0.75 to 0.432.

Going from DNAJC13 (UniProt O75165) to MYO5C (UniProt Q9NQX4), the thermal stability z-score rises from -0.226 to 0.236.

Compared with ATG4B (UniProt Q9Y4P1), ZFYVE19 (UniProt Q96K21) is lower in thermal stability z-score: -0.419 for the first, -0.599 for the second.

Compared with ATP5C1 (UniProt P36542), SND1 (UniProt Q7KZF4) is higher in thermal stability z-score: -0.306 for the first, 0.479 for the second.

With IP6K1 (UniProt Q92551) the thermal stability z-score was -0.471.
